Measurements: patent US20240025884A1 (Dong-A ST Co., Ltd., priority 2022, published 2024)

Target: GCN2 (Homo sapiens (Human), UniProt Q9P2K8)
Experiment: GCN2 Biochemical Assay (TR-FRET, GFP-eIF2S1 substrate phosphorylation)
Settings: read-out: IC50 (GCN2 Inhibitory Activity)
Summary of the method: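 TR-FRET readout (Ex 340, Em 490/520 nm) after 2–3 h with Tb-labelled phospho-eIF2S1 antibody in stop mix, following a 70 min room-temperature kinase step. Reaction: in-house GCN2, GFP-eIF2S1, ATP, tRNA in Tris pH 7.5 (2× stocks 1.6 nM, 50 nM, 0.2 mM); compounds tested at 10 concentrations, with a phospho-substrate artifact counter-plate.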

Chain of GCN2 (Q9P2K8 whole entry): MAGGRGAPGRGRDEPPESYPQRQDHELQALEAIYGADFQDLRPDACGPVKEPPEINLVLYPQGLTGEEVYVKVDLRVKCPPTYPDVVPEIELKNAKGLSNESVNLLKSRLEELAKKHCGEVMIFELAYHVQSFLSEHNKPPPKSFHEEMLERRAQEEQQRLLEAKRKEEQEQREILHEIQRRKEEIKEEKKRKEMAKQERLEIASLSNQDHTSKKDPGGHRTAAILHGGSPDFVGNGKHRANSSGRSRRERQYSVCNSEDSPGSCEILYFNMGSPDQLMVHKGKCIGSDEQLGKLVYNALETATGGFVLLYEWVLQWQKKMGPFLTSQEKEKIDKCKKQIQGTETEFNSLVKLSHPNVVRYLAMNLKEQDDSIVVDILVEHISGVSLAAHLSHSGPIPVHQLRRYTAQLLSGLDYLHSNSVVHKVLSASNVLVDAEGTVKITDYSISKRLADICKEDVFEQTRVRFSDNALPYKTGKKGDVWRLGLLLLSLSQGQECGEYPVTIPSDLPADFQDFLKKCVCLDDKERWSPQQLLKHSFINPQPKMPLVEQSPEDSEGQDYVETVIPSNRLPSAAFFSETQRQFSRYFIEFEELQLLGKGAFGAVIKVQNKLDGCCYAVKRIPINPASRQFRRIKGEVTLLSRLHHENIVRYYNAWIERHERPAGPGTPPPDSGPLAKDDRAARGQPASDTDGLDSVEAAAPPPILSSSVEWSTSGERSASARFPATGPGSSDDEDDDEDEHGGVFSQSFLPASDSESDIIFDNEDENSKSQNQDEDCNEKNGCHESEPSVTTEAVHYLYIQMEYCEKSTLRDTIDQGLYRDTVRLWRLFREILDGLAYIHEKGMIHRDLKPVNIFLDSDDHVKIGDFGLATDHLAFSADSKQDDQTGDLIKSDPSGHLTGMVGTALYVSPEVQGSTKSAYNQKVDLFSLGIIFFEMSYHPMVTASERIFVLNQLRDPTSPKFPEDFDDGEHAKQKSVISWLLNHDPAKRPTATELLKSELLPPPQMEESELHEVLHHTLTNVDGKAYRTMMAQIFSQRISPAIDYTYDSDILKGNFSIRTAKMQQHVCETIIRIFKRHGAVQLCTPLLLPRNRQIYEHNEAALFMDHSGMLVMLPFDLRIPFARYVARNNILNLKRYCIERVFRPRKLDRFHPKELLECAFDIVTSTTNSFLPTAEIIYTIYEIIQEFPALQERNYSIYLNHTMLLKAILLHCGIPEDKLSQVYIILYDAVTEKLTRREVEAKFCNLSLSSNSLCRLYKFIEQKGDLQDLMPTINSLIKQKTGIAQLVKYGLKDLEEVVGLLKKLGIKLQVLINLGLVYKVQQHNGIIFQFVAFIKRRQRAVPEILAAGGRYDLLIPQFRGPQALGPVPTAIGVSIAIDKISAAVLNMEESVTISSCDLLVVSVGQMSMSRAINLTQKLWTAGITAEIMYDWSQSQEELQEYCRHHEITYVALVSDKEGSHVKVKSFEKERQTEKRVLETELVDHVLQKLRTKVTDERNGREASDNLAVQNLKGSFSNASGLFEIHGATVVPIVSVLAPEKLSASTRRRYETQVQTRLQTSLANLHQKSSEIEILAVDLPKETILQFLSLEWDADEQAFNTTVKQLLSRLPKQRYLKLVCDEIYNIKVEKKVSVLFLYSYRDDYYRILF

IC50, < 10 nM:
Cc1cnc(Nc2cc(C)n(C)n2)nc1-c1c[nH]c2c(N3Cc4c(NC(=O)[C@@H]5CCC(=O)N5)cccc4C3=O)cccc12 [Example 317, (S)-N-(2-(3-(2-((1,5-dimethyl-1H-pyrazol-3-yl)amino)-5-methylpyrimidin-4-yl)-1H-indol-7-yl)-1-oxoisoindolin-4-yl)-5-oxopyrrolidine-2-carboxamide]
Cc1cnc(Nc2cc(C)n(C)n2)nc1-c1c[nH]c2c(N3Cc4c(NC(=O)[C@H]5CCC(=O)N5)cccc4C3=O)cccc12 [Example 318, (R)-N-(2-(3-(2-((1,5-dimethyl-1H-pyrazol-3-yl)amino)-5-methylpyrimidin-4-yl)-1H-indol-7-yl)-1-oxoisoindolin-4-yl)-5-oxopyrrolidine-2-carboxamide]
Cc1cnc(Nc2cc(C)n(C)n2)nc1-c1c[nH]c2c(N3Cc4c(NC(=O)C5CCCNC5)cccc4C3=O)cccc12 (centres unmarked) [Example 319, N-(2-(3-(2-((1,5-dimethyl-1H-pyrazol-3-yl)amino)-5-methylpyrimidin-4-yl)-1H-indol-7-yl)-1-oxoisoindolin-4-yl)piperidine-3-carboxamide]
Cc1cnc(Nc2cc(C)n(C)n2)nc1-c1c[nH]c2c(N3Cc4c(NC(=O)C5CCC(=O)CC5)cccc4C3=O)cccc12 [Example 320, N-(2-(3-(2-((1,5-dimethyl-1H-pyrazol-3-yl)amino)-5-methylpyrimidin-4-yl)-1H-indol-7-yl)-1-oxoisoindolin-4-yl)-4-oxocyclohexane-1-carboxamide]
Cc1cnc(Nc2cc(C)n(C)n2)nc1-c1c[nH]c2c(N3Cc4c(NC(=O)c5cnoc5C)cccc4C3=O)cccc12 [Example 321, N-(2-(3-(2-((1,5-dimethyl-1H-pyrazol-3-yl)amino)-5-methylpyrimidin-4-yl)-1H-indol-7-yl)-1-oxoisoindolin-4-yl)-5-methylisoxazole-4-carboxamide]
Cc1nc(C(=O)Nc2cccc3c2CN(c2cccc4c(-c5nc(Nc6cc(C)n(C)n6)ncc5C)c[nH]c24)C3=O)co1 [Example 322, N-(2-(3-(2-((1,5-dimethyl-1H-pyrazol-3-yl)amino)-5-methylpyrimidin-4-yl)-1H-indol-7-yl)-1-oxoisoindolin-4-yl)-2-methyloxazole-4-carboxamide]
Cc1cnc(Nc2cc(C)n(C)n2)nc1-c1c[nH]c2c(N3Cc4c(NC(=O)c5cnco5)cccc4C3=O)cccc12 [Example 323, N-(2-(3-(2-((1,5-dimethyl-1H-pyrazol-3-yl)amino)-5-methylpyrimidin-4-yl)-1H-indol-7-yl)-1-oxoisoindolin-4-yl)oxazole-5-carboxamide]
Cc1cnc(Nc2cc(C)n(C)n2)nc1-c1c[nH]c2c(N3Cc4c(NC(=O)C5CCOC5)cccc4C3=O)cccc12 (centres unmarked) [Example 326, N-(2-(3-(2-((1,5-dimethyl-1H-pyrazol-3-yl)amino)-5-methylpyrimidin-4-yl)-1H-indol-7-yl)-1-oxoisoindolin-4-yl)tetrahydrofuran-3-carboxamide]
Cc1cnc(Nc2cc(C)n(C)n2)nc1-c1c[nH]c2c(N3Cc4c(NC(=O)C5CCCOC5)cccc4C3=O)cccc12 (centres unmarked) [Example 327, N-(2-(3-(2-((1,5-dimethyl-1H-pyrazol-3-yl)amino)-5-methylpyrimidin-4-yl)-1H-indol-7-yl)-1-oxoisoindolin-4-yl)tetrahydro-2H-pyran-3-carboxamide]
Cc1cnc(Nc2cc(C)n(C)n2)nc1-c1c[nH]c2c(N3Cc4c(NC(=O)C5(C)CCOCC5)cccc4C3=O)cccc12 [Example 328, N-(2-(3-(2-((1,5-dimethyl-1H-pyrazol-3-yl)amino)-5-methylpyrimidin-4-yl)-1H-indol-7-yl)-1-oxoisoindolin-4-yl)-4-methyltetrahydro-2H-pyran-4-carboxamide]
Cc1cnc(Nc2cc(C)n(C)n2)nc1-c1c[nH]c2c(N3Cc4c(NC(=O)[C@H]5C[C@H](N)CN5)cccc4C3=O)cccc12 [Example 331, (2R,4S)-4-amino-N-(2-(3-(2-((1,5-dimethyl-1H-pyrazol-3-yl)amino)-5-methylpyrimidin-4-yl)-1H-indol-7-yl)-1-oxoisoindolin-4-yl)pyrrolidine-2-carboxamide]
Cc1cnc(Nc2cc(C)n(C)n2)nc1-c1c[nH]c2c(N3Cc4c(NC(=O)C5(C)CCCNC5)cccc4C3=O)cccc12 (centres unmarked) [Example 332, N-(2-(3-(2-((1,5-dimethyl-1H-pyrazol-3-yl)amino)-5-methylpyrimidin-4-yl)-1H-indol-7-yl)-1-oxoisoindolin-4-yl)-3-methylpiperidine-3-carboxamide]
Cc1cnc(Nc2cc(C)n(C)n2)nc1-c1c[nH]c2c(N3Cc4c(NC(=O)[C@@H]5CCN(C)C5)cccc4C3=O)cccc12 [Example 333, (R)-N-(2-(3-(2-((1,5-dimethyl-1H-pyrazol-3-yl)amino)-5-methylpyrimidin-4-yl)-1H-indol-7-yl)-1-oxoisoindolin-4-yl)-1-methylpyrrolidine-3-carboxamide]
Cc1cnc(Nc2cc(C)n(C)n2)nc1-c1c[nH]c2c(N3Cc4c(NC(=O)CN(C)C)cccc4C3=O)cccc12 [Example 335, N-(2-(3-(2-((1,5-dimethyl-1H-pyrazol-3-yl)amino)-5-methylpyrimidin-4-yl)-1H-indol-7-yl)-1-oxoisoindolin-4-yl)-2-(dimethylamino)acetamide]
Cc1cnc(Nc2cc(C)n(C)n2)nc1-c1c[nH]c2c(N3Cc4c(NC(=O)C5CCOCC5)cccc4C3=O)cccc12 [Example 337, N-(2-(3-(2-((1,5-dimethyl-1H-pyrazol-3-yl)amino)-5-methylpyrimidin-4-yl)-1H-indol-7-yl)-1-oxoisoindolin-4-yl)tetrahydro-2H-pyran-4-carboxamide]
Cc1cnc(Nc2cc(C)n(C)n2)nc1-c1c[nH]c2c(N3Cc4c(NC(=O)c5cc(O)ncn5)cccc4C3=O)cccc12 [Example 339, N-(2-(3-(2-((1,5-dimethyl-1H-pyrazol-3-yl)amino)-5-methylpyrimidin-4-yl)-1H-indol-7-yl)-1-oxoisoindolin-4-yl)-6-hydroxypyrimidine-4-carboxamide]
Cc1cnc(Nc2cc(C)n(C)n2)nc1-c1c[nH]c2c(N3Cc4c(NS(=O)(=O)c5ccccc5)cccc4C3=O)cccc12 [Example 341, N-(2-(3-(2-((1,5-dimethyl-1H-pyrazol-3-yl)amino)-5-methylpyrimidin-4-yl)-1H-indol-7-yl)-1-oxoisoindolin-4-yl)benzenesulfonamide]
Cc1cnc(Nc2cc(C)n(C)n2)nc1-c1c[nH]c2c(N3Cc4c(NS(C)(=O)=O)cccc4C3=O)cccc12 [Example 342, N-(2-(3-(2-((1,5-dimethyl-1H-pyrazol-3-yl)amino)-5-methylpyrimidin-4-yl)-1H-indol-7-yl)-1-oxoisoindolin-4-yl)methanesulfonamide]

IC50, 100 to 1000 nM:
Cc1cnc(Nc2cc(C)n(C)n2)nc1-c1c[nH]c2c(N3Cc4c(NC(=O)C5CCCC(C)C5)cccc4C3=O)cccc12 (centres unmarked) [Example 329, N-(2-(3-(2-((1,5-dimethyl-1H-pyrazol-3-yl)amino)-5-methylpyrimidin-4-yl)-1H-indol-7-yl)-1-oxoisoindolin-4-yl)-3-methylcyclohexane-1-carboxamide]
Cc1cnc(Nc2cc(C)n(C)n2)nc1-c1c[nH]c2c(N3Cc4cccc(NS(=O)(=O)c5ccccc5)c4C3=O)cccc12 [Example 340, N-(2-(3-(2-((1,5-dimethyl-1H-pyrazol-3-yl)amino)-5-methylpyrimidin-4-yl)-1H-indol-7-yl)-3-oxoisoindolin-4-yl)benzenesulfonamide]

IC50, 10 to 100 nM:
Cc1cnc(Nc2cc(C)n(C)n2)nc1-c1c[nH]c2c(N3Cc4c(NC(=O)c5ccon5)cccc4C3=O)cccc12 [Example 324, N-(2-(3-(2-((1,5-dimethyl-1H-pyrazol-3-yl)amino)-5-methylpyrimidin-4-yl)-1H-indol-7-yl)-1-oxoisoindolin-4-yl)isoxazole-3-carboxamide]
Cc1cc(C(=O)Nc2cccc3c2CN(c2cccc4c(-c5nc(Nc6cc(C)n(C)n6)ncc5C)c[nH]c24)C3=O)no1 [Example 325, N-(2-(3-(2-((1,5-dimethyl-1H-pyrazol-3-yl)amino)-5-methylpyrimidin-4-yl)-1H-indol-7-yl)-1-oxoisoindolin-4-yl)-5-methylisoxazole-3-carboxamide]
CC1=CCC(C(=O)Nc2cccc3c2CN(c2cccc4c(-c5nc(Nc6cc(C)n(C)n6)ncc5C)c[nH]c24)C3=O)CC1 (centres unmarked) [Example 330, N-(2-(3-(2-((1,5-dimethyl-1H-pyrazol-3-yl)amino)-5-methylpyrimidin-4-yl)-1H-indol-7-yl)-1-oxoisoindolin-4-yl)-4-methylcyclohex-3-ene-1-carboxamide]
Cc1cncc(C(=O)Nc2cccc3c2CN(c2cccc4c(-c5nc(Nc6cc(C)n(C)n6)ncc5C)c[nH]c24)C3=O)c1 [Example 334, N-(2-(3-(2-((1,5-dimethyl-1H-pyrazol-3-yl)amino)-5-methylpyrimidin-4-yl)-1H-indol-7-yl)-1-oxoisoindolin-4-yl)-5-methylnicotinamide]
Cc1cnc(Nc2cc(C)n(C)n2)nc1-c1c[nH]c2c(N3Cc4c(NC(=O)C5CCCC5)cccc4C3=O)cccc12 [Example 336, N-(2-(3-(2-((1,5-dimethyl-1H-pyrazol-3-yl)amino)-5-methylpyrimidin-4-yl)-1H-indol-7-yl)-1-oxoisoindolin-4-yl)cyclopentanecarboxamide]
Cc1cnc(Nc2cc(C)n(C)n2)nc1-c1c[nH]c2c(N3Cc4c(NC(=O)c5ccoc5)cccc4C3=O)cccc12 [Example 338, N-(2-(3-(2-((1,5-dimethyl-1H-pyrazol-3-yl)amino)-5-methylpyrimidin-4-yl)-1H-indol-7-yl)-1-oxoisoindolin-4-yl)furan-3-carboxamide]
